The compounds below were run against T1, Gonadotropin-releasing hormone receptor (Homo sapiens, UniProt P30968) (assay: Inhibitory activity against human GnRH receptor using des-Gly10[125I]Tyr5, D-Leu, NMeLeu, Pro-NEt]GnRH radioligand).
T1 sequence (P30968 whole entry): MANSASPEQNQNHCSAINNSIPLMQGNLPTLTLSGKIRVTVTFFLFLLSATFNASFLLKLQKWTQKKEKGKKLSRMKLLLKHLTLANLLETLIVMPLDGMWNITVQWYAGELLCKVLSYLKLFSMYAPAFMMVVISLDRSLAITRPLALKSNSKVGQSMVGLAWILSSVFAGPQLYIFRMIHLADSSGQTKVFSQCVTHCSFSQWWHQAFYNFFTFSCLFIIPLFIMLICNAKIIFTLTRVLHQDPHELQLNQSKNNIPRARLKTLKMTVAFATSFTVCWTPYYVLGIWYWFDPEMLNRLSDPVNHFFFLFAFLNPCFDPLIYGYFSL

Row | IC50 | SMILES
1 | 7 nM | Cc1cc(C)cc(-c2[nH]c3ccccc3c2CCNCCCCc2ccc(NS(C)(=O)=O)cc2)c1
2 | 0.4 nM | Cc1cc(-c2c(O)nc3ccc(C(=O)Nc4ccncn4)cc3c2OCC[C@@H]2CCN2)cc(C)c1C

Each compound was assayed against T1, Gonadotropin-releasing hormone receptor (assay: Binding affinity against human GnRH receptor expressed in HEK293 cells using des-Gly10[125I]Tyr5, D-Leu, NMeLeu, Pro-NEt GnRH as radioligand.).
Assay type: cell-based

Row | Ki | SMILES
3 | 1200 nM | CCOC(=O)c1cn(Cc2cc(F)ccc2F)c2c(C#N)c(-c3ccc(OCC(C)C)cc3)c(CN(C)CCc3ccccn3)n2c1=O
4 | 2500 nM | COc1ccc(-c2c(C#N)c3n(Cc4ccccc4F)cc(C(=O)OC(C4CC4)C4CC4)c(=O)n3c2CN(C)CCc2ccccn2)cc1
5 | > 50000 nM | CCOC(=O)c1cn(Cc2ccc(F)cc2F)c2c(C#N)c(-c3ccc(OCC(C)C)cc3)c(CN(C)CCc3ccncc3)n2c1=O
6 | 2000 nM | CCOC(=O)c1cn(Cc2c(F)cccc2F)c2c(C#N)c(-c3ccc(OC)cc3)c(CN(C)CCc3ccccn3)n2c1=O
7 | 400 nM | COc1ccc(-c2c(C#N)c3n(Cc4ccccc4F)cc(C(=O)OC(C)C)c(=O)n3c2CN(C)CCc2ccccn2)cc1
8 | 28000 nM | CCOC(=O)c1cn(Cc2ccc(F)cc2F)c2c(C#N)c(-c3ccc(OCC(C)C)cc3)c(CN(C)CCc3cccnc3)n2c1=O
9 | 3700 nM | CCOC(=O)c1cn(Cc2ccc(F)cc2F)c2c(C#N)c(-c3ccc(OC)cc3)c(CN(C)CCc3ccccn3)n2c1=O
10 | 33 nM | CN(CCc1ccccn1)Cc1c(-c2ccc(OC3CCCC3)cc2)c(C#N)c2n(Cc3ccccc3F)cc(C(=O)OC3CCCC3)c(=O)n12
11 | 42000 nM | CCOC(=O)c1cn(Cc2ccccc2)c2c(C#N)c(-c3ccc(OC)cc3)c(CN(C)Cc3ccccc3)n2c1=O
12 | 2600 nM | CCOC(=O)c1cn(Cc2ccccc2)c2c(C#N)c(-c3ccc(OC)cc3)c(CN(C)CCc3ccccn3)n2c1=O
13 | 8500 nM | CCOC(=O)c1cn(Cc2ccccc2Cl)c2c(C#N)c(-c3ccc(OC)cc3)c(CN(C)CCc3ccccn3)n2c1=O
14 | 100 nM | CCOC(=O)c1cn(Cc2ccccc2F)c2c(C#N)c(-c3ccc(OCC(C)C)cc3)c(CN(C)CCc3ccccn3)n2c1=O
15 | 400 nM | CCOC(=O)c1cn(Cc2ccc(F)cc2F)c2c(C#N)c(-c3ccc(OCC(C)C)cc3)c(CN(C)CCc3ccccn3)n2c1=O
16 | > 50000 nM | CCOC(=O)c1cn(CC2CC2)c2c(C#N)c(-c3ccc(OC)cc3)c(CN(C)CCc3ccccn3)n2c1=O
17 | 800 nM | CCOC(=O)c1cn(Cc2c(F)cccc2F)c2c(C#N)c(-c3ccc(OCC(C)C)cc3)c(CN(C)CCc3ccccn3)n2c1=O
18 | 6000 nM | CCOC(=O)c1cn(Cc2cc(F)ccc2F)c2c(C#N)c(-c3ccc(OC)cc3)c(CN(C)CCc3ccccn3)n2c1=O
19 | 1800 nM | CCOC(=O)c1cn(Cc2ccccc2F)c2c(C#N)c(-c3ccc(OC)cc3)c(CN(C)Cc3ccccc3)n2c1=O
20 | 4900 nM | CCOC(=O)c1cn(Cc2ccccc2C#N)c2c(C#N)c(-c3ccc(OC)cc3)c(CN(C)CCc3ccccn3)n2c1=O
21 | > 50000 nM | CCOC(=O)c1cn(Cc2ccc(F)cc2F)c2c(C#N)c(-c3ccc(OCC(C)C)cc3)c(CN(C)CCc3ccccc3)n2c1=O
22 | 260 nM | COc1ccc(-c2c(C#N)c3n(Cc4ccccc4F)cc(C(=O)OC4CCCC4)c(=O)n3c2CN(C)CCc2ccccn2)cc1
23 | 31 nM | CCC(CC)OC(=O)c1cn(Cc2ccccc2F)c2c(C#N)c(-c3ccc(OC4CCCC4)cc3)c(CN(C)CCc3ccccn3)n2c1=O
24 | > 50000 nM | CCOC(=O)c1cn(Cc2ccccc2)c2c(C#N)c(-c3ccc(OC)cc3)c(CN(C)C)n2c1=O
25 | 2100 nM | COc1ccc(-c2c(C#N)c3n(Cc4ccccc4F)cc(C(=O)OC4CCOC4)c(=O)n3c2CN(C)CCc2ccccn2)cc1 (configuration not stated)
26 | 6600 nM | CCOC(=O)c1cn(Cc2ccccc2OC)c2c(C#N)c(-c3ccc(OC)cc3)c(CN(C)CCc3ccccn3)n2c1=O
27 | 180 nM | CCC(CC)OC(=O)c1cn(Cc2ccccc2F)c2c(C#N)c(-c3ccc(OC)cc3)c(CN(C)CCc3ccccn3)n2c1=O
28 | 2200 nM | CCOC(=O)c1cn(Cc2ccccc2OC)c2c(C#N)c(-c3ccc(OCC(C)C)cc3)c(CN(C)CCc3ccccn3)n2c1=O
29 | 500 nM | CCOC(=O)c1cn(Cc2ccccc2F)c2c(C#N)c(-c3ccc(OC)cc3)c(CN(C)CCc3ccccn3)n2c1=O
30 | 2400 nM | CCOC(=O)c1cn(Cc2cccc(F)c2F)c2c(C#N)c(-c3ccc(OC)cc3)c(CN(C)CCc3ccccn3)n2c1=O
31 | 25 nM | CCC(CC)OC(=O)c1cn(Cc2ccccc2F)c2c(C#N)c(-c3ccc(OCC(C)C)cc3)c(CN(C)CCc3ccccn3)n2c1=O

Each compound was assayed against T2, Gonadotropin-releasing hormone receptor (Rattus norvegicus, UniProt P30969) (assay: Binding affinity against gonadotropin-releasing hormone receptor of rat).
T2 sequence (P30969 whole entry): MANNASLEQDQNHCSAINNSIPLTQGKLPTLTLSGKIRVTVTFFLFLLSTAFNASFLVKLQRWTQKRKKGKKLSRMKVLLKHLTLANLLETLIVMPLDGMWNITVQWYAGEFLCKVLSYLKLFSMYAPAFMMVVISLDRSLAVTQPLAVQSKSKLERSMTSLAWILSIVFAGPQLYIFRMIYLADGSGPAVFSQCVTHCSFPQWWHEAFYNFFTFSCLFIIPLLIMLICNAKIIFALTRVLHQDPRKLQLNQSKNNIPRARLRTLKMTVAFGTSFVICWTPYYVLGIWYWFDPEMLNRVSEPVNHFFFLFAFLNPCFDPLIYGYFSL

Row | IC50 | Ki | SMILES
32 | 170 nM | – | Cc1cc(C)cc(-c2[nH]c3ccccc3c2CCNCCCCc2ccc(NS(C)(=O)=O)cc2)c1
33 | – | 8900 nM | CN(CCc1ccccn1)Cc1c(-c2ccc(OC3CCCC3)cc2)c(C#N)c2n(Cc3ccccc3F)cc(C(=O)OC3CCCC3)c(=O)n12
34 | 4 nM | – | Cc1cc(-c2c(O)nc3ccc(C(=O)Nc4ccncn4)cc3c2OCC[C@@H]2CCN2)cc(C)c1C
35 | – | 7600 nM | CCC(CC)OC(=O)c1cn(Cc2ccccc2F)c2c(C#N)c(-c3ccc(OC4CCCC4)cc3)c(CN(C)CCc3ccccn3)n2c1=O
36 | – | 7700 nM | CCC(CC)OC(=O)c1cn(Cc2ccccc2F)c2c(C#N)c(-c3ccc(OC)cc3)c(CN(C)CCc3ccccn3)n2c1=O
37 | – | 7300 nM | CCC(CC)OC(=O)c1cn(Cc2ccccc2F)c2c(C#N)c(-c3ccc(OCC(C)C)cc3)c(CN(C)CCc3ccccn3)n2c1=O

From ChEMBL document CHEMBL1135038, “Initial structure-activity relationship studies of a novel series of pyrrolo[1,2-a]pyrimid-7-ones as GnRH receptor antagonists” (Bioorg Med Chem Lett, 2002)
